# According to EP4635944A1, “2-AZABICYCLO[3.1.1]HEPTANE COMPOUND” (Daiichi Sankyo Company, Limited, priority 2022, dated 2024):
# Target: T1, human OX2R (Homo sapiens, UniProt O43614)
# T1 construct: host or cells: CHO-K1 (Chinese Hamster Ovary K1)
# T1 sequence (O43614 1-444): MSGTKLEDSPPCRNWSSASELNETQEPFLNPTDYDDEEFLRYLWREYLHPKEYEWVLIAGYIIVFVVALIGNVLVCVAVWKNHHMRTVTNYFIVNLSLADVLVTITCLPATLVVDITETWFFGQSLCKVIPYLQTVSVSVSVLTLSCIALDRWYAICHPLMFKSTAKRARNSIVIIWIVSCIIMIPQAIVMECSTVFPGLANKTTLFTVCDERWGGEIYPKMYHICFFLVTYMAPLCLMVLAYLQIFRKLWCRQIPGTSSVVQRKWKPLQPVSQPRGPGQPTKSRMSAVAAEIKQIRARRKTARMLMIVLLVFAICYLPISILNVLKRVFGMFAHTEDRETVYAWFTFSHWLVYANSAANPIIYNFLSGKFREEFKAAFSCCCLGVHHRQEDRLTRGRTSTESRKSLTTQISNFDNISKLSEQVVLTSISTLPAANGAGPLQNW
# Test: Evaluation of OX2R agonist activity (intracellular calcium, CHO-K1 cells with forced expression of human OX2R)
# Type: cell-based
# Details: CHO-K1 cells expressing human OX2R; 100% = 5 µM of the reference compound; read-out: hOX2R EC50
# Method: Evaluation of OX2R agonist activity
# Chinese Hamster Ovary K1 (CHO-K1) cells (GenScript) with forced expression of human OX2R were seeded onto a 384 well microplate (Corning) at 7500 cells/well and cultured for 24 hours. 20 µL of the loading buffer (25 mM HEPES containing 1.25 mM of Probenecid and 2.5 µg/mL of Fluo 4-AM at final concentration, Hank's balanced salt solution, 0.06% Pluronic F-127, Quenching buffer) in the Calcium Kit II (DOJINDO LABORATORIES) was added, and the microplate was allowed to stand for 30 minutes. A reference compound (Example435 of WO 2019/027058, N-[(2S,3S)-2-[[3-(3,5-difluorophenyl)-2-fluoro-phenyl]methyl]-1-(2-hydroxy-2-methylpropanoyl)pyrrolidin-3-yl]ethanesulfonamide) or the test compound was added in 10 µL, and changes in intracellular calcium ion concentration were measured using FDSS7000EX (Hamamatsu Photonics K.K.) as a fluorescence intensity ratio obtained upon dual wavelength excitation at 480 nm and 540 nm. Note that the reference compound or test compound was dissolved in DMSO (final concentration of DMSO was 0.5%) and diluted with an assay buffer (20 mM HEPES, Hank's balanced salt solution, 0.1% BSA). The difference between the maximum and minimum fluorescence values between 5 and 7 seconds after the addition of the test compound or reference compound was used as the indicator. The value of wells to which the assay buffer containing no test compound was added was defined as 0%, and the value of wells to which 5 µM of the reference compound was added was defined as 100%. The 50% effective concentration (EC50 value) was determined from the values obtained when various concentrations of the test compound were added. […]
row,Structure (SMILES),EC50
1,"CS(=O)(=O)N[C@H]1C2CC(C2)N(C(=O)C2(C#N)CC2)[C@H]1Cc1cccc(-c2cc(F)cc(F)c2)c1F [Example 33, N-{(3S,4S)-2-[(1-Cyanocyclopropyl)carbonyl]-3-[(2,3',5'-trifluoro[biphenyl]-3-yl)methyl]-2-azabicyclo[3.1.1]heptan-4-yl}methanesulfonamide]",326 nM
2,"CS(=O)(=O)NC1C(Cc2cccc(-c3cc(F)cc(F)c3)c2F)N(C(=O)C2CC2)C2CC1(F)C2 (single isomer, unassigned) [Example 36, N-{(3S,4R)-2-(Cyclopropylcarbonyl)-5-fluoro-3-[(2,3',5'-trifluoro[biphenyl]-3-yl)methyl]-2-azabicyclo[3.1.1]heptan-4-yl}methanesulfonamide or N-{(3R,4S)-2-(cyclopropylcarbonyl)-5-fluoro-3-[(2,3',5'-trifluoro[biphenyl]-3-yl)methyl]-2-azabicyclo[3.1.1]heptan-4-yl}methanesulfonamide]",62 nM
3,"CS(=O)(=O)N[C@@H]1[C@H](Cc2cc(F)cc(-c3cccc(Cl)c3)c2F)N(C(=O)[C@H](O)C(F)(F)F)C2CC1(F)C2 (single isomer, unassigned) [Example 82]",79 nM
4,"CCS(=O)(=O)NC1C2CC(C2)N(C(=O)[C@@H](C)O)C1Cc1cc(F)cc(-c2ccccc2)c1F (single isomer, unassigned) [Example 81]",43 nM
5,"C[C@H](O)CC(=O)N1C2CC(C2)[C@H](NS(C)(=O)=O)[C@@H]1Cc1cccc(-c2ccccc2)c1F (single isomer, unassigned) [Example 86]",112 nM
6,"CC(C(=O)N1C2CC(C2)[C@H](NS(C)(=O)=O)[C@@H]1Cc1cccc(-c2ccccc2)c1F)n1cccn1 (stereo partly drawn) [Example 93, N-{(3S,4S)-3-[(2-Fluoro[biphenyl]-3-yl)methyl]-2-[2-(1H-pyrazol-1-yl)propanoyl]-2-azabicyclo[3.1.1]heptan-4-yl}methanesulfonamide]",23 nM
7,"CNC(=O)N1C2CC(C2)[C@H](NS(C)(=O)=O)[C@@H]1Cc1cccc(-c2cc(F)cc(F)c2)c1F [Example 27, (3S,4S)-N-Methyl-4-[(methylsulfonyl)amino]-3-[(2,3',5'-trifluoro[biphenyl]-3-yl)methyl]-2-azabicyclo[3.1.1]heptane-2-carboxamide]",61 nM
8,"O=C([C@H]1C[C@H]1F)N1C2CC(C2)[C@H](NS(=O)(=O)C2CC2)[C@@H]1Cc1cccc(-c2ccccc2)c1F [Example 45, N-[(3S,4S)-3-[(2-Fluoro[biphenyl]-3-yl)methyl]-2-{[(1R,2R)-2-fluorocyclopropyl]carbonyl}-2-azabicyclo[3.1.1]heptan-4-yl]cyclopropanesulfonamide]",115 nM
9,"CC[C@@H](O)C(=O)N1C2CC(C2)[C@H](NS(C)(=O)=O)[C@@H]1Cc1cccc(-c2cc(F)cc(F)c2)c1F [Example 26, N-{(3S,4S)-2-[(2R)-2-Hydroxybutanoyl]-3-[(2,3',5'-trifluoro[biphenyl]-3-yl)methyl]-2-azabicyclo[3.1.1]heptan-4-yl}methanesulfonamide]",35 nM
10,"C[C@@H](O)C(=O)N1C2CC(C2)[C@H](NS(C)(=O)=O)[C@@H]1Cc1cccc(-c2cccc3c2OC(F)(F)O3)c1F [Example 38, N-{(3S,4S)-3-[3-(2,2-Difluoro-1,3-benzodioxol-4-yl)-2-fluorobenzyl]-2-[(2R)-2-hydroxypropanoyl]-2-azabicyclo[3.1.1]heptan-4-yl}methanesulfonamide]",68 nM
11,"CS(=O)(=O)NC1C2CC(C2)N(C(=O)C2CC2)C1Cc1ccnc(-c2cc(F)cc(F)c2)c1F (single isomer, unassigned) [Example 22, N-[2-(Cyclopropylcarbonyl)-3-{[2-(3,5-difluorophenyl)-3-fluoropyridin-4-yl]methyl}-2-azabicyclo[3.1.1]heptan-4-yl]methanesulfonamide]",80 nM
12,"CS(=O)(=O)N[C@H]1C2CC(C2)N(C(=O)C(O)C(F)F)[C@H]1Cc1cccc(-c2ccccc2)c1F (single isomer, unassigned) [Example 72]",112 nM
13,"CO[C@H](C)C(=O)N1C2CC(C2)[C@H](NS(C)(=O)=O)[C@@H]1Cc1cccc(-c2cc(F)cc(F)c2)c1F [Example 48, N-{(3S,4S)-2-[(2R)-2-Methoxypropanoyl]-3-[(2,3',5'-trifluoro[biphenyl]-3-yl)methyl]-2-azabicyclo[3.1.1]heptan-4-yl}methanesulfonamide]",33 nM
14,"C[C@H](O)C(=O)N1C2CC(C2)[C@H](NS(C)(=O)=O)[C@@H]1Cc1cccc(-c2cc(F)cc(F)c2)c1F [Example 15, N-{(3S,4S)-2-[(2S)-2-Hydroxypropanoyl]-3-[(2,3',5'-trifluoro[biphenyl]-3-yl)methyl]-2-azabicyclo[3.1.1]heptan-4-yl}methanesulfonamide]",303 nM
15,"[2H]c1c([2H])c([2H])c(-c2cccc(C[C@H]3[C@@H](NS(C)(=O)=O)C4CC(C4)N3C(=O)[C@@H](C)O)c2F)c([2H])c1[2H] [Example 54, N-{(3S,4S)-3-{[2-Fluoro(2',3',4',5',6'-^2H5)[biphenyl]-3-yl]methyl}-2-[(2R)-2-hydroxypropanoyl]-2-azabicyclo[3.1.1]heptan-4-yl}methanesulfonamide]",22 nM
16,"CS(=O)(=O)N[C@H]1C2CC(C2)N(C(=O)C2CC2)[C@H]1Cc1cccc(-c2cc(F)cc(F)c2)c1F [Example 20, N-{(3S,4S)-2-(Cyclopropylcarbonyl)-3-[(2,3',5'-trifluoro[biphenyl]-3-yl)methyl]-2-azabicyclo[3.1.1]heptan-4-yl}methanesulfonamide]",32 nM
17,"CC(C)NC(=O)N1C2CC(C2)[C@H](NS(C)(=O)=O)[C@@H]1Cc1cccc(-c2cc(F)cc(F)c2)c1F [Example 35, (3S,4S)-4-[(Methylsulfonyl)amino]-N-(propan-2-yl)-3-[(2,3',5'-trifluoro[biphenyl]-3-yl)methyl]-2-azabicyclo[3.1.1]heptane-2-carboxamide]",75 nM
18,"C[C@@H](O)C(=O)N1C2CC(C2)[C@H](NS(C)(=O)=O)[C@@H]1Cc1cccc(-c2cccc(F)c2)c1F [Example 40, N-{(3S,4S)-3-[(2,3'-Difluoro[biphenyl]-3-yl)methyl]-2-[(2R)-2-hydroxypropanoyl]-2-azabicyclo[3.1.1]heptan-4-yl}methanesulfonamide]",49 nM
19,"CCS(=O)(=O)NC1C2CC(C2)N(C(=O)N2CCC2)C1Cc1cccc(-c2cc(F)cc(F)c2)c1F (single isomer, unassigned) [Example 9, N-{2-(Azetidin-1-ylcarbonyl)-3-[(2,3',5'-trifluoro[biphenyl]-3-yl)methyl]-2-azabicyclo[3.1.1]heptan-4-yl}ethanesulfonamide]",89 nM
20,"[2H]C([2H])([2H])[C@@]([2H])(O)C(=O)N1C2CC(F)(C2)[C@H](NS(=O)(=O)CC)[C@@H]1Cc1cccc(-c2ccccc2)c1F [Example 90, N-{(3S,4R)-5-Fluoro-3-[(2-fluoro[biphenyl]-3-yl)methyl]-2-[(2R)-2-hydroxy(^2H4)propanoyl]-2-azabicyclo[3.1.1]heptan-4-yl}ethanesulfonamide]",21 nM
21,"C[C@@H](O)C(=O)N1C2CC(F)(C2)C(NS(C)(=O)=O)C1Cc1cccc(-c2cc(F)cc(F)c2)c1F (single isomer, unassigned) [Example 23, N-{(3S,4R)-5-Fluoro-2-[(2R)-2-hydroxypropanoyl]-3-[(2,3',5'-trifluoro[biphenyl]-3-yl)methyl]-2-azabicyclo[3.1.1]heptan-4-yl}methanesulfonamide or N-{(3R,4S)-5-fluoro-2-[(2R)-2-hydroxypropanoyl]-3-[(2,3',5'-trifluoro[biphenyl]-3-yl)methyl]-2-azabicyclo[3.1.1]heptan-4-yl}methanesulfonamide]",34 nM
22,"C[C@@H](O)C(=O)N1C2CC(C2)[C@H](NS(C)(=O)=O)[C@@H]1Cc1cccc(-c2cccc(C3CC3)c2)c1F [Example 41, N-{(3S,4S)-3-[(3'-Cyclopropyl-2-fluoro[biphenyl]-3-yl)methyl]-2-[(2R)-2-hydroxypropanoyl]-2-azabicyclo[3.1.1]heptan-4-yl}methanesulfonamide]",31 nM
23,"C[C@@H](O)C(=O)N1C2CC(C2)[C@H](NS(C)(=O)=O)[C@@H]1Cc1cccc(-c2cccc(C3CC3)n2)c1F [Example 43, N-{(3S,4S)-3-[3-(6-Cyclopropylpyridin-2-yl)-2-fluorobenzyl]-2-[(2R)-2-hydroxypropanoyl]-2-azabicyclo[3.1.1]heptan-4-yl}methanesulfonamide]",49 nM
